This passage reports TGI and GI50 results from PubChem BioAssay (NCI).

Some test systems named below: UACC-62 melanoma; DU-145 prostate; MDA-MB-435; HL-60(TB) leukemia; MALME-3M melanoma; MOLT-4 leukemia; 786-0 renal; OVCAR-8 ovarian; HOP-62 NSCLC; PC-3 prostate; KM12 colon; OVCAR-5 ovarian; SK-MEL-5 melanoma; MDA-N; SNB-75 CNS; NCI-H226 lung; M14 melanoma.
Test in all cases: inhibition of tumour cell growth, NCI panel, 48 h

Where “and” joins values, the source holds several entries; their conditions need not be identical. Identical values can stand only once.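 96-well plates; 48 h exposure; 5 concentrations. Endpoints by linear interpolation between flanking doses. Not reached: highest tested concentration assigned. GI50 is the concentration that inhibits growth by half. TGI denotes the concentration required for complete inhibition of growth.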

`Fc1ccc(Nc2nc(Cl)c3[nH]cnc3n2)cc1Cl`: the TGI with UACC-62 melanoma, in the assay with DU-145 prostate, in the assay on MDA-MB-435, with HL-60(TB) leukemia, with MALME-3M melanoma and in the assay on MOLT-4 leukemia was above 100 µM in each case. The TGI in the assay with 786-0 renal, in the assay on OVCAR-8 ovarian, with HOP-62 NSCLC, in the assay with PC-3 prostate, in the assay on KM12 colon and in the assay with OVCAR-5 ovarian was above 100 µM in each case. Further, the TGI with SK-MEL-5 melanoma, in the assay with MDA-N, with SNB-75 CNS, with NCI-H226 lung and in the assay with M14 melanoma was above 100 µM each time.

For the compound `C=CCOC(=O)Cn1cnc2c(N)ncnc21`, the TGI in the assay on UACC-62 melanoma, in the assay with DU-145 prostate, with MDA-MB-435, in the assay on HL-60(TB) leukemia, in the assay on MALME-3M melanoma and in the assay with MOLT-4 leukemia was above 100 µM each time. For the same compound, the TGI in the assay with 786-0 renal, in the assay with OVCAR-8 ovarian, in the assay on HOP-62 NSCLC, in the assay with PC-3 prostate, in the assay on KM12 colon and with SK-MEL-5 melanoma was above 100 µM each time. Besides, the TGI in the assay on MDA-N, in the assay on SNB-75 CNS, in the assay on NCI-H226 lung and with M14 melanoma was above 100 µM throughout.

As for `Clc1ccc(OCC2NC3CCC2CC3)cn1` (configuration not stated), the TGI was 39.3 µM in the assay with UACC-62 melanoma; above 100 µM with DU-145 prostate; 43.4 µM with MDA-MB-435; 51.9 µM in the assay on HL-60(TB) leukemia; 39.6 µM in the assay with MALME-3M melanoma; 47.5 µM in the assay on MOLT-4 leukemia. Further, the TGI with 786-0 renal is 36.7 µM; with OVCAR-8 ovarian it was above 100 µM; in the assay on HOP-62 NSCLC, 67.1 µM; in the assay with PC-3 prostate it was 78.3 µM; in the assay with KM12 colon, 35.3 µM; in the assay with OVCAR-5 ovarian, above 100 µM. In addition, the TGI with SK-MEL-5 melanoma is 31.8 µM; with MDA-N it was 33.5 µM; in the assay with SNB-75 CNS, above 100 µM; in the assay with NCI-H226 lung, above 100 µM; with M14 melanoma, 36.5 µM.

In the case of `CCC(C)N1CN(c2ccccc2)C2(CCN(CC3COc4ccccc4O3)CC2)C1=O` (configuration not stated), the TGI in the assay on UACC-62 melanoma was 49.8 µM; in the assay on DU-145 prostate, 59.8 µM; in the assay with MDA-MB-435, 49.7 µM; with HL-60(TB) leukemia, 34.4 µM; in the assay on MALME-3M melanoma, 34.6 µM; in the assay with MOLT-4 leukemia, 66.4 µM. The TGI turned out to be 35.5 µM in the assay on 786-0 renal; 67.9 µM in the assay with OVCAR-8 ovarian; 41.7 µM with HOP-62 NSCLC; 87.3 µM in the assay with PC-3 prostate; 43.9 µM with KM12 colon; 28.9 µM in the assay with SK-MEL-5 melanoma. In addition, the TGI was 64.1 µM with MDA-N, above 100 µM in the assay with SNB-75 CNS, 52.3 µM with NCI-H226 lung and 46.3 µM in the assay on M14 melanoma.

With `COC(=O)C(Cc1ccccc1)NC(=O)CSc1nnc(COc2ccc(Cl)cc2)n1-c1ccccc1` (configuration not stated), the TGI in the assay with UACC-62 melanoma was 27.9 µM; in the assay with DU-145 prostate, above 100 µM; in the assay on MDA-MB-435, 45.6 µM; in the assay on HL-60(TB) leukemia it was 46.6 µM; in the assay with MALME-3M melanoma, 42.7 µM; with MOLT-4 leukemia it was above 100 µM. Also, the TGI is 29.8 µM with 786-0 renal; 45 µM with HOP-62 NSCLC; 59 µM in the assay with PC-3 prostate; above 100 µM with KM12 colon; 54.6 µM with OVCAR-5 ovarian; 31.4 µM in the assay on SK-MEL-5 melanoma. Further, the TGI is 43.7 µM with MDA-N, 56.1 µM in the assay with SNB-75 CNS, above 100 µM in the assay on NCI-H226 lung and 35.1 µM in the assay on M14 melanoma.

In the case of `COC(=O)c1cc2ccc(O)c(O)c2cn1`, the GI50 is 14.2 µM in the assay on UACC-62 melanoma, 4.6 µM in the assay with MOLT-4 leukemia and 1890 nM in the assay with MDA-N. The TGI is 6.16 µM and 30.9 µM in the assay on UACC-62 melanoma; above 100 µM in the assay with DU-145 prostate; 3.25 µM and 3.21 µM in the assay with MDA-MB-435; above 100 µM in the assay with HL-60(TB) leukemia; 27.5 µM with MALME-3M melanoma; above 100 µM with MOLT-4 leukemia. In addition, the TGI in the assay on 786-0 renal was determined as 19.7 µM; in the assay on OVCAR-8 ovarian, 28.6 µM; in the assay on HOP-62 NSCLC, 36.2 µM; in the assay on PC-3 prostate, 56.4 µM; with KM12 colon, 32 µM; in the assay on OVCAR-5 ovarian it was 35 µM. Also, the TGI is 28.2 µM in the assay with SK-MEL-5 melanoma; 2.89 µM and 3.69 µM in the assay with MDA-N; 36.6 µM with SNB-75 CNS; 36.8 µM with NCI-H226 lung; 34.6 µM in the assay with M14 melanoma.

As to `COC1=C(C(c2cc(OC)c(OC)c(OC)c2)c2cc3c(cc2OC)OCO3)C(=O)OC1` (configuration not stated), the TGI was above 87 µM with UACC-62 melanoma; 70.5 µM in the assay on DU-145 prostate; 17.5 µM in the assay on MDA-MB-435; 49.9 µM in the assay on HL-60(TB) leukemia; above 73.2 µM in the assay on MALME-3M melanoma; above 100 µM with MOLT-4 leukemia. Also, the TGI with 786-0 renal is 65.4 µM; in the assay on OVCAR-8 ovarian, 73.9 µM; in the assay with HOP-62 NSCLC, above 84 µM; in the assay on PC-3 prostate, above 70.4 µM; in the assay on KM12 colon, 40.9 µM; in the assay with OVCAR-5 ovarian, above 100 µM. The TGI was above 62.6 µM in the assay on SK-MEL-5 melanoma; 17.1 µM in the assay on MDA-N; above 64.3 µM in the assay with SNB-75 CNS; 79.7 µM in the assay with NCI-H226 lung; 63.6 µM in the assay on M14 melanoma.

With `CC(C)(C)N(Cc1ccccc1)C(=O)/C=C\S(=O)c1ccccc1` (configuration not stated), the TGI in the assay with UACC-62 melanoma was 15.2 µM; in the assay with DU-145 prostate it was 13.6 µM; with MDA-MB-435 it was 11.3 µM; in the assay with HL-60(TB) leukemia, 6.54 µM; with MALME-3M melanoma, 12.2 µM; in the assay with MOLT-4 leukemia, 7.39 µM. Also, the TGI in the assay with 786-0 renal is 4.87 µM; in the assay with OVCAR-8 ovarian it was 4.16 µM; in the assay on HOP-62 NSCLC it was 21.2 µM; with PC-3 prostate, 13.2 µM; in the assay with KM12 colon, 18.1 µM; with OVCAR-5 ovarian, 28.8 µM. In addition, the TGI was 15.9 µM in the assay on SK-MEL-5 melanoma; 8.64 µM in the assay on MDA-N; 23.1 µM in the assay with SNB-75 CNS; 16.4 µM in the assay on NCI-H226 lung; 8.91 µM in the assay with M14 melanoma.

With `Cc1ccc2c(c1C)C(=O)C1(C2)Cc2ccc3c(c2C1=O)CCC3` (configuration not stated), the TGI with UACC-62 melanoma, in the assay with DU-145 prostate, with MDA-MB-435, in the assay with HL-60(TB) leukemia, in the assay with MALME-3M melanoma and with MOLT-4 leukemia was above 100 µM throughout. Besides, the TGI in the assay with 786-0 renal, with OVCAR-8 ovarian, with PC-3 prostate, in the assay with KM12 colon, in the assay with OVCAR-5 ovarian and in the assay on SK-MEL-5 melanoma was above 100 µM in each case. Further, the TGI in the assay on MDA-N, with SNB-75 CNS, in the assay on NCI-H226 lung and with M14 melanoma was above 100 µM in each case.
